Activity calls are given as the source filed them.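 How the source made its calls: active means AC50 no higher than twice the top valid tested dose, with signal falling as dose rises; inconclusive means flat fit with partial inhibition, or a poor-quality fit; inactive means the rest, plus effects in the rising direction.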

This assay has as its target Kelch-like ECH-associated protein 1 (Homo sapiens) (UniProt Q14145). Kind of assay: Keap1 Kelch-Nrf2 peptide binding inhibitors, dose response, biochemical, fluorescence polarization, dry powder, set 3 (AID 651806). As to conditions: Keap1 Kelch/FITC-Nrf2 peptide fluorescence polarization; for activity change, negative = inhibition: at 50 µM (top of the series).

Sequence of Kelch-like ECH-associated protein 1 (Homo sapiens) (Q14145 whole entry, looked up): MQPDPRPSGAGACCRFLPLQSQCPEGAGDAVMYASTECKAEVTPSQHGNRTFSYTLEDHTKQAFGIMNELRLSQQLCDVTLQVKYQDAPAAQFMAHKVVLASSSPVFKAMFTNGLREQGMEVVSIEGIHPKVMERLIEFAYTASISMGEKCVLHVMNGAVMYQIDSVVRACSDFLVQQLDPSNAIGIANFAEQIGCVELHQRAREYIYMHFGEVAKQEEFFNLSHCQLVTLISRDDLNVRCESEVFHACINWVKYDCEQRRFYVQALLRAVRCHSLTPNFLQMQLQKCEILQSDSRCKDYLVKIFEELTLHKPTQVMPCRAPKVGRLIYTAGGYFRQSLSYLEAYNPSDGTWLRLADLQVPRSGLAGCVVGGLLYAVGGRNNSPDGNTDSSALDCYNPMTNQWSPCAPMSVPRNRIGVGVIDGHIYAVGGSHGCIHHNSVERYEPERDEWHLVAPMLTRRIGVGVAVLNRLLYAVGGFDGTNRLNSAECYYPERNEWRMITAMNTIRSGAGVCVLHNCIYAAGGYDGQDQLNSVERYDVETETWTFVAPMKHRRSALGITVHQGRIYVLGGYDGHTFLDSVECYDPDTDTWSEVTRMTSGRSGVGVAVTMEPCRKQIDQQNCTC

For `Cc1ccc(S(=O)(=O)Nc2cc(C(C(=O)OC(C)C)C(=O)C(F)(F)F)c(O)c3ccccc23)cc1` (stereo not given), the AC50 is > 100 µM (inactive). On to `Cc1cc(C)c(S(=O)(=O)Nc2ncnc3ccccc23)c(C)c1`, for which the “activity change, negative = inhibition” value was “inactive”.

Regarding `Cc1ccc(S(=O)(=O)NNc2nc(C(C(=O)OC(C)C)C(=O)C(F)(F)F)nc3ccccc23)cc1` (stereo not given), the “activity change, negative = inhibition” value was “inactive”. For the molecule `Cc1cc(C)c(S(=O)(=O)Nc2cc(C(C(=O)OC(C)C)C(=O)C(F)(F)F)c(O)c3ccccc23)c(C)c1` (stereo not given), the half-maximal activity concentration (AC50) is 14.7 µM.

Turning to `O=C(NCCO)c1ccccc1C(=O)NC[C@@H]1c2ccccc2CCN1C(=O)C1CCCCC1C(=O)O` (stereo not given in full), the “activity change, negative = inhibition” value is “inactive”.

The record behind these values is PubChem BioAssay AID651806 (Broad Institute, 2012).
